The values below are quoted from earlier work in US20100189771A1, “FIXED RATIO DRUG COMBINATION TREATMENTS FOR SOLID TUMORS” (priority 2005, published 2010).

Like-named read-outs stand apart in the source and are kept apart here.

For this data set the following is noted: conventional irinotecan.

In the case of `CCc1c2c(nc3ccc(OC(=O)N4CCC(N5CCCCC5)CC4)cc13)-c1cc3c(c(=O)n1C2)COC(=O)[C@]3(O)CC` [Irinotecan, irinotecan], the “IRINOTECAN AUC” value is recorded as 18,091 ng-h/ml (dose 240 mg/m^2, N=3) and 22,998 ng-h/ml (dose 340 mg/m^2, N=6). Besides, the “IRINOTECAN Cmax” value is listed as 2,810 ng/ml (dose 240 mg/m^2, N=3, patients' plasma) and 3,392 ng/ml (dose 340 mg/m^2, N=6).
